Data from patent US20250296942A1, “Phosphonate-Based Coordination Complexes and Methods of Preparation and Use Thereof” (University of Puerto Rico, priority 2021, published 2025).

Assays:
[1] = PBS pH 7.40
[2] = Release of letrozole from drug-loaded 2,2′-BPBPA-Ca in FaSSGF; assay type: physicochemical; details: 37° C., 150 rpm, duplicate
Experimental: LET release curve from 2,2′-BPBPA-Ca. The release curve of LET from 2,2′-BPBPA-Ca was assessed in FaSSGF. A calibration curve for LET in FaSSGF was previously prepared; the lambda max (λmax) was detected at 238 nm (Supporting Information). About 100 mL of FaSSGF were placed in a 250-mL beaker and left in constant stirring at 37° C. (150 rpm).
(§1) Subsequently, […] of powdered drug-loaded 2,2′-BPBPA-Ca (experimental) were placed into the FaSSGF solution. After each time point (0, 1, 3, 6, 24, 48, and 72 h), an aliquot (1 mL) was taken out and diluted in a 5 mL volumetric flask. An aliquot was taken out before adding the drug-loaded material to record the first time point (0 h). Then, the absorbance was measured at 238 nm to determine the amount (%) of LET release from the 2,2′-BPBPA-Ca.
TGA thermographs for these drug-loaded materials were collected to determine the amount of LET loaded into the channels of 2,2′-BPBPA and nano-Ca@2,2′-BPBPA (20-21%, FIG. 8B). Furthermore, the release capacity of these drug-loaded BPCCs was assessed in physiological conditions (FaSSGF, pH=1.60) at 37° C. The LET release from 2,2′-BPBPA-Ca was determined by measuring the absorption of the supernatant at the lambda max (λmax=[…]) and quantifying the increase in the LET concentration over time.
as §1, with “Release experiment. […] About 100 mL of FaSSGF were placed in a 250-mL beaker and left in constant stirring at 37° C. (150 rpm). Subsequently,” for “Subsequently,”, “2,2′-BPBPA-Ca. The release curve of LET (control) in FaSSGF was used for comparison.” for “2,2′-BPBPA-Ca.”

[3] = test system: human breast cancer MCF-7 cell line; assay: AlamarBlue cytotoxicity, BPBPA series, MCF-7; assay type: cell-based
Experimental: Cell culture methods. MCF-7, MDA-MB-231, and hFOB 1.19 cell lines were incubated employing DMEM (37° C.) and DMEM: F12 (34° C.) medium, respectively, in a 5% CO2. Cell lines were supplemented using 10% FBS and 1% Pen-Strep and medium exchange was performed twice a week. Cell passages were carried out at 80% confluency.
Cell-based assays. Cell lines were seeded in 96 well plates at a density of 5×10^3 cells/mL, cells were incubated for 24 h before treatment. Both cell lines were treated with 100 μL of BPBPA (0-400 μM), LET (0-200 μM), unloaded and loaded nano-Ca@BPBPA (0-50 μM). All cell-based assays were performed for 24, 48, and 72 h of treatment. Control groups were treated with media (DMEM or DMEM: F12) supplemented with 1% Pen-Strep. Then, the media was removed and replaced with 100 μL of 10% AlamarBlue® solution. The 96 well plates were incubated for 4 h before measurements. Then, the fluorescence was assessed at 560 nm of excitation and λmax 590 nm of emission. The cell viability (%) was evaluated by contrasting the percentage of live cells of the control groups with the cells treated with BPBPA, LET, unloaded and loaded nano-Ca@BPBPA. The half-maximal inhibitory concentration (IC50) was determined for BPBPA and letrozole employing the dose-response curves (% cell live vs. concentration). The relative cell live (% RCL) was assessed for the unloaded and loaded nano-Ca@BPBPA, utilizing LET as a control group. The IC50 and % RCL were plotted using the GraphPad Prism software vs. 9.3.0.
The cytotoxicity of BPBPA (control), LET (control), nano-Ca@BPBPA (control), and drug-loaded nano-Ca@BPBPA (experimental) was investigated employing the human breast cancer, MCF-7 and MDA-MB-231, and the human osteoblast, hFOB 1.19, cell lines. The human MCF-7 cell line represents an ER-positive breast cancer model with estrogen, progesterone, and glucocorticoid receptors.^1 While, the human MDA-MB-231 cells correspond to a model of ER-negative breast cancer. Both selected cancer cell lines can be implicated in the development and progress of bone metastases in patients.^40,41 The human fetal hFOB 1.19 cells represent a homogeneous osteoblast-like (non-cancerous) model commonly employed to assess osteoblast differentiation.^42 The cytotoxicity of these materials was evaluated by determining the IC50 and % RCL. […] Similar results were found for MDA-MB-231 and hFOB 1.19 cell lines treated with LET (IC50 >200 μM) at the same time points (Supporting Information).
Cell culture methods. MCF-7 and MDA-MB-231 were incubated employing DMEM media at 37° C. in 5% CO2. The hFOB 1.19 cell lines were incubated using DMEM: F12 at 34° C. in 5% CO2. Cell lines were supplemented using 10% FBS and 1% Pen-Strep. The media was exchanged twice per week. Cell passages were carried out at 80% confluency.
Seeding. Cell lines were seeded in 96 well plates at a density of […] cells/mL; cells were incubated for 24 h before each treatment.
Treatment. Cell lines were treated with 100 μL of BPBPA (0-400 μM), LET (0-200 μM), unloaded and loaded nano-Ca@BPBPA (0.5-50 μM). Control groups were treated with media (DMEM or DMEM: F12) supplemented with 1% Pen-Strep. All cell-based assays were performed after 24, 48, and 72 h of treatment and in triplicate.
AlamarBlue@assay. To determine the cell viability, the media was removed and replaced with 100 μL of 10% AlamarBlue® solution. The 96 well plates were incubated for 4 h before measurements. Then, the fluorescence was assessed at 560 nm of excitation and λmax 590 nm of emission.

Row | Percentage (%) of letrozole (LET) released, Mean ([2]; 1 h) [%] | Percentage (%) of letrozole (LET) released, Mean ([2]; 3 h) [%] | Percentage (%) of letrozole (LET) released, Mean ([2]; 6 h) [%] | Percentage (%) of letrozole (LET) released, Mean ([2]; 24 h) [%] | Percentage (%) of letrozole (LET) released, Mean ([2]; 48 h) [%] | Percentage (%) of letrozole (LET) released, Mean ([2]; 72 h) [%] | Structure (SMILES) | time to reach maximum dissolution [1] [min] | % RCL ([3]; 0.5 μM, 24 h) [%] | % RCL ([3]; 0.5 μM, 48 h) [%] | % RCL ([3]; 0.5 μM, 72 h) [%] | % RCL ([3]; 1.6 μM, 72 h) [%] | % RCL ([3]; 3.1 μM, 24 h) [%] | % RCL ([3]; 3.1 μM, 48 h) [%] | % RCL ([3]; 3.1 μM, 72 h) [%] | % RCL ([3]; 6.3 μM, 24 h) [%] | % RCL ([3]; 6.3 μM, 72 h) [%] | % RCL ([3]; 12.5 μM, 72 h) [%] | IC50 ([3]; Homo sapiens, MCF7, 72 h) [µM]
1 |  |  |  |  |  |  | O=P(O)(O)C(O)(Cc1cccnc1)P(=O)(O)O [RISE, Monosodium risedronate hemipentahydrate] | 30 |  |  |  |  |  |  |  |  |  |  | 
2 | 65 | 72 | 75 | 93 | 94 | 94 | N#Cc1ccc(C(c2ccc(C#N)cc2)n2cncn2)cc1 [LET, letrozole] |  | ~100 | ~100 | 88±5 | 81 | 99±2 | 86±3 | 78±1 | 99±1 | 75±3 | 70±1 | ~20
